Reference: US8629135B2, “Pharmaceutical compositions comprising RET inhibitors and methods for the treatment of cancer” (Queen's University at Kingston, priority 2008, dated 2014)
Where “and” joins values, the source holds several entries; their conditions need not be identical. Equal entries are not always repeated. Entries after “also recorded” stand apart in the source; their conditions may differ. Structures can show the parent of a compound that is named as a salt. Where two headings read alike, the source gives them in different places.

Legend:
BxPc3 tumours = settings: BxPc3 xenograft, nude mice, 50 mg/kg intraperitoneal every three days
[1] = test system: RET-mediated activation of ERK; settings: increasing concentrations, HEK293 cells
RET M918T mutant = RET M918T mutant (Homo sapiens (Human), UniProt P07949, M918T); settings: HEK293 cells, 2 h
[2] = test system: HEK293 cells stably expressing RET
MiaPaca-2 cells = settings: presence of GDNF
MiaPaca-2 tumours = test: Xenograft study, subcutaneous MiaPaca-2 tumours; assay type: in vivo; settings: MiaPaca-2 xenograft, nude mice, intraperitoneal; SW-01 50 mg/kg, gemcitabine 120 mg/kg
[3] = test system: MiaPaca-2 cells expressing RET; settings: MiaPaca-2, GDNF + SW-01 (5 μM) relative to GDNF alone
RET [4] = target: T1, RET (Homo sapiens (Human), UniProt P07949); design: key to the marks not given beside the values; settings: RET phosphorylation levels
Target sequence in this assay (P07949 29-1114): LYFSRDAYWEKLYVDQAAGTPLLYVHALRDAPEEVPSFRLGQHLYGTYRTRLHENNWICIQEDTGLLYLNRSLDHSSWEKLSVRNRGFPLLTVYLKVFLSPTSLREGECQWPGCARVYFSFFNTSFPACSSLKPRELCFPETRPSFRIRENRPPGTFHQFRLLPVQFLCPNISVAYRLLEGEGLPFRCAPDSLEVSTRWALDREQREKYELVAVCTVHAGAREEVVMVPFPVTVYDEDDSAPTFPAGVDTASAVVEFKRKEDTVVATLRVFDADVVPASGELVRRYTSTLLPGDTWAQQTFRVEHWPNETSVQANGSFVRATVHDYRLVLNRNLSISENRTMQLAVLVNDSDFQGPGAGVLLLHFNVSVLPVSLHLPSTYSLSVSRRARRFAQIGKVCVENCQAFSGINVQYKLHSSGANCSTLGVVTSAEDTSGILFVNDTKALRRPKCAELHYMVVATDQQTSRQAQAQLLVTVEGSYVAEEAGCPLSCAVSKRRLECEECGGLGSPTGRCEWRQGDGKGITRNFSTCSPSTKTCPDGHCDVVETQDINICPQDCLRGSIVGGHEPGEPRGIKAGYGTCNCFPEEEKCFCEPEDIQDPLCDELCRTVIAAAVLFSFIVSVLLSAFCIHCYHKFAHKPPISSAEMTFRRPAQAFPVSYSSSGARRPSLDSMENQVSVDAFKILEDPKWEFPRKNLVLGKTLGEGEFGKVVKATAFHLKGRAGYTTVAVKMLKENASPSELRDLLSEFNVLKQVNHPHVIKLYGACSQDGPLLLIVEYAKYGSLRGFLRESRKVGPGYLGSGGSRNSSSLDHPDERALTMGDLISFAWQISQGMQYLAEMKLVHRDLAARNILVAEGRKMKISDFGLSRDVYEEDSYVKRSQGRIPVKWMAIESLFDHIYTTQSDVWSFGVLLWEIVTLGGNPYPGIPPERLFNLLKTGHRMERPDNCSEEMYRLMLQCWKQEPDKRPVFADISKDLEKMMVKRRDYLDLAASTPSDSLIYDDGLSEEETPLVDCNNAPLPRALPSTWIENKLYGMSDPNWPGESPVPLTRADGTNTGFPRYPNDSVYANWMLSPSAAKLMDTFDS

MCF7 cells = settings: presence of GDNF
TT cells [5] = test system: TT cells
RET [6] = target: T1, RET; test: Protein based RET kinase assay with purified recombinant GST-RET; assay type: biochemical
Target sequence in this assay (P07949 29-1114): as above

RET V804M mutant = RET V804M mutant (Homo sapiens (Human), UniProt P07949, V804M); settings: HEK293 cells, 2 h
TT cells [7] = settings: 24 hours, 10× magnification
ERK or AKT pathways = settings: parental HEK 293 cells not expressing RET, increasing concentration
RET [8] = target: T1, RET; test: RET autophosphorylation (pY905 Western blot) in HEK293 cells stably expressing RET; assay type: cell-based
Target sequence in this assay (P07949 29-1114 limits assumed): as the sequence (P07949 29-1114) above

[9] = test system: RET-expressing HEK293 cells
[10] = purified protein assay, read-out: IC50
[11] = varying concentrations, 2 hours, HEK293 cells expressing RET
[12] = cell based assay, read-out: EC50

RET M918T mutant, sequence (P07949 29-1114 M918T): as the sequence (P07949 29-1114) above, with M890T counted along it
RET V804M mutant, sequence (P07949 29-1114 V804M): as the sequence (P07949 29-1114) above, with V776M counted along it

For `CN(C)CCC=C1c2ccccc2C=Cc2ccccc21.Cl` [SW-01, Cyclobenzaprine Hydrochloride], which tumour growth (BxPc3 tumours) is on record?
The tumour growth was “caused slowed and reduced tumour growth”.

What about the “amount of pERK” value [1] of the same compound?
The value was “significantly reduced”.

What about the “RET phosphorylation (pRET/RET)” value (RET M918T mutant) of the same compound?
The value was “inhibited by SW-01 in a concentration dependent fashion”.

What about the “RET-mediated cell proliferation (MTT)” value [2] of the same compound?
Its value is “reduces RET-mediated cell proliferation”.

What about the apoptosis (MiaPaca-2 cells) of the same compound?
Its apoptosis is “caused dose-dependent apoptosis”.

And the apoptosis (NCIH69 cells)?
The apoptosis was “caused apoptosis in NCIH69 cells in a dose-dependent fashion”.

What about the “cell proliferation (MTT)” value (BxPc3) of the same compound?
Its value is “caused decreased cell proliferation”.

What about the tumour growth (MiaPaca-2 tumours) of the same compound?
The tumour growth was “no statistical difference between SW-01 and gemcitabine treatment groups”.

What about the “cell migration (wound closure)” value [3] of the same compound?
Its value is “cell migration was inhibited”.

And the “SW-01 Inhibition (10 μM)” value (RET [4])?
Its value is “++”.

What about the apoptosis (MCF7 cells) of the same compound?
The apoptosis was “caused apoptosis in MCF7 cells in a dose-dependent fashion”.

And the apoptosis (TT cells [5])?
The apoptosis was “led to apoptosis”.

And the IC50 (RET [6]; kinase assays using purified recombinant RET proteins, Hydrochloride, read-out: IC50 for RET)?
Its IC50 is 0.3 µM and 0.307 µM.

What about the IC50 (RET [6]; [10]) of the same compound?
The IC50 was 0.3 µM.

And the RET autokinase activity (RET [6]; purified recombinant RET, pY905 Western blot)?
The RET autokinase activity was “significantly reduced RET autokinase activity”.

What about the “cell proliferation (MTT)” value (MiaPaca-2) of the same compound?
Its value is “caused decreased cell proliferation”.

And the “RET phosphorylation (pRET/RET)” value (RET V804M mutant)?
Its value is “inhibited by SW-01 in a concentration dependent fashion”.

What about the cell morphology (TT cells [7]) of the same compound?
Its cell morphology is “exhibited induced morphological changes”.

And the “effect on ERK or AKT pathways” value (ERK or AKT pathways)?
The value was “did not affect ERK or AKT pathways”.

What about the RET autophosphorylation (RET [8]; 10 μM for 2 hours, HEK293 cells expressing activated wildtype RET, Hydrochloride) of the same compound?
Its RET autophosphorylation is “significantly inhibited RET autophosphorylation”.

And the RET autophosphorylation (RET [8]; 10 μM for 2 hours, HEK293 cells expressing activated wildtype RET, listed as NSC78206, Hydrochloride)?
The RET autophosphorylation was “significant RET inhibition”.

What about the EC50 (RET [8]; EC50, cell based assay) of the same compound?
The EC50 was 1 µM.

And the “expression levels of RET” value (RET [8]; pan RET antibody, HEK293 cells)?
The value was “did not affect expression levels of RET”.

What about the RET autophosphorylation (RET [8]; [11]) of the same compound?
Its RET autophosphorylation is “blocked or dramatically reduced”.

And the “RET-mediated colony formation in soft agar” value [9]?
The value was “inhibits RET-mediated colony formation”.

Which results are given for `CNCCC=C1c2ccccc2CCc2ccccc21.Cl` [SW-02, Nortriptyline Hydrochloride]?
IC50 (RET [6]; purified protein assay, Hydrochloride, read-out: IC50): 5 µM; EC50 (RET [8]; EC50, cell based assay): > 20 µM; RET autophosphorylation (RET [8]; varying concentrations, 2 hours, HEK293 cells expressing RET, Hydrochloride): inhibited RET activity; also recorded: decreased RET activity

Which IC50 (RET [6]; [10]) does the source give for `C[N+](C)([O-])CCC=C1c2ccccc2CCc2ccccc21.Cl` [SW-03, 3-(10,11-Dihydro-5H-dibenzo[a,d]cyclohepten-5-ylidene)-N,N-dimethyl-1-propanamine N-oxide hydrochloride] here?
Its IC50 is 10 µM.

What about the EC50 (RET [8]) of the same compound?
Its EC50 is > 20 µM.

And the RET autophosphorylation (RET [8]; [11])?
The RET autophosphorylation was “did not affect RET autophosphorylation”.

Which IC50 (RET [6]; [10]) does the source give for `CNCCC=C1c2ccccc2CCc2ccccc21` [SW-04, Nortriptyline] here?
Its IC50 is 1.5 µM.

And the EC50 (RET [8]; EC50, cell based assay)?
Its EC50 is 10 µM.

And the RET autophosphorylation (RET [8]; [11])?
The RET autophosphorylation was “did not affect RET autophosphorylation”.

`CN(C)CCC=C1c2ccccc2CCc2ccccc21` [SW-05, Amitriptyline] was tested. Which IC50 (RET [6]; [10]) did it give?
Its IC50 is 1 µM.

What about the EC50 (RET [8]) of the same compound?
Its EC50 is 5 µM.

What about the RET autophosphorylation (RET [8]; [11]) of the same compound?
Its RET autophosphorylation is “inhibited RET activity; also recorded: decreased RET activity”.

How did the IC50 (RET [6]; [10]) turn out when `CN(CCCN1c2ccccc2CCc2ccccc21)CC(=O)c1ccc(Cl)cc1` [SW-06, Lofepramine] was run?
The IC50 was > 20 µM.

What about the EC50 (RET [8]; [12]) of the same compound?
The EC50 was > 20 µM.

Which results are given for `NCC1c2ccccc2CCc2ccccc21` [SW-08, 10,11-Dihydro-5H-dibenzo[a,d]cycloheptene-5-methanamine]?
IC50 (RET [6]; [10]): 5 µM; EC50 (RET [8]): 20 µM

With `CN(C)CCNC1c2ccccc2-c2ccccc21` [SW-09, N′-Fluoren-9-yl-N,N-dimethyl-ethylenediamine dihydrochloride] as the compound, how does the IC50 (RET [6]; [10]) read?
Its IC50 is > 20 µM.

What about the EC50 (RET [8]; [12]) of the same compound?
The EC50 was > 20 µM.

Which results are given for `NCCCC1(CCCN)c2ccccc2-c2ccccc21` [SW-10, 9,9-Bis(3-aminopropyl)-fluorine]?
IC50 (RET [6]; [10]): > 20 µM; EC50 (RET [8]; [12]): > 20 µM

For `CN(C)CCCC1(O)c2ccccc2C=Cc2ccccc21` [SW-11, 5-(3-Dimethylamino-propyl)-5H-dibenzo[a,d]cyclohepten-5-ol], which IC50 (RET [6]; [10]) is on record?
The IC50 was > 10 µM.

And the EC50 (RET [8]; [12])?
Its EC50 is > 20 µM.

How did the IC50 (RET [6]; [10]) turn out when `CCN(CC)CCCOC(=O)CC1c2ccccc2C=Cc2ccccc21` [SW-12, (5H-Dibenzo[a,d]cyclohepten-5-yl)-acetic acid 3-diethylamino-propyl ester] was run?
Its IC50 is 4 µM.

What about the EC50 (RET [8]) of the same compound?
The EC50 was > 20 µM.

For `CN(C)CCOC1c2ccccc2C=Cc2ccccc21` [SW-13, [2-(5H-Dibenzo[a,d]cyclohepten-5-yloxy)-ethyl]-dimethyl-amine], which IC50 (RET [6]; [10]) is on record?
Its IC50 is 2.5 µM.

And the EC50 (RET [8]; [12])?
The EC50 was 7 µM.

Which IC50 (RET [6]; [10]) does the source give for `CN(C)CCC=C1c2ccccc2C(C)(C)c2ccccc21` [SW-14, Melitracin] here?
Its IC50 is > 20 µM.

And the EC50 (RET [8]; [12])?
The EC50 was > 20 µM.

Which EC50 (RET [8]) does the source give for `CNCCC=C1c2ccccc2C=Cc2ccccc21` [SW-15, Norcyclo- benzaprine (NCBA)] here?
The EC50 was 1 µM.

And the RET autophosphorylation (RET [8]; [11])?
Its RET autophosphorylation is “inhibited RET”.

With `Nc1ccn([C@@H]2O[C@H](CO)[C@@H](O)C2(F)F)c(=O)n1` [gemcitabine, reference compound] as the compound, how does the tumour growth (MiaPaca-2 tumours) read?
The tumour growth was “no statistical difference between SW-01 and gemcitabine treatment groups”.
